Converted amounts (≈) assume the structure as drawn. “And” between values parts separate entries of the source, which are not always exact repeats. Identical values can stand only once. Like-named read-outs stand apart in the source and are kept apart here.
Columns and labels:
[1] = test system: Mycobacterium tuberculosis H37Rv (ATCC-27294); test: MIC by MABA (Microplate Alamar Blue Assay), in vitro antimicrobial activity; format: cell-based; conditions: for Inhibition (%): Table 2, M. tuberculosis H37Rv (ATCC 27294), concentration not given
[2] = test system: promastigote forms of Leishmania amazonensis; test: Leishmanicide evaluation in vitro, live parasites counted by fluorescence; format: cell-based; conditions: L. amazonensis promastigotes, read-out: Percentage of parasitic inhibition; for inhibition at 160 µg/mL: concentration 160 μg/mL; for inhibition at 10 µg/mL: concentration 10 μg/mL
Experimental: The evaluation of the leishmanicide activity of the type I and II 1,2,3-triazole derivatives was made through in vitro essays against promastigote forms of Leishmania amazonensis, and after the incubation with compounds, live parasites are counted by fluorescence, thus obtaining as a result, the percentage of inhibition of the compounds evaluated.
Essays were performed in triplicate using pentamidine as a positive pattern with a 160 μg/mL concentration.
The evaluation of the leishmanicide activity of type I (Formula XII) and II (Formula XIII) imidazole derivatives was performed through in vitro essays against promastigote forms of Leishmania amazonensis, and after the incubation with compounds, live parasites are counted by fluorescence, thus obtaining as a result the inhibition percentage of the evaluated compounds.
Essays were performed in triplicate using pentamidine as a positive pattern with a 160 μg/mL concentration, determining which compounds evaluated inhibited the parasite in lower concentrations and the percentage higher than the pattern. Table 6 lists the results obtained in the leishmanicide evaluation of derivatives 140a 148a 146a, 149a.

[3] = 1,2,3-triazole derivatives types I-III and rifampicin comparison pattern, M. tuberculosis H37Rv, MABA
[4] = Table 2, type I and II 1,2,3-triazoles, M. tuberculosis H37Rv (ATCC 27294), MABA
[5] = Mycobacterium tuberculosis, Table 2, type I and II 1,2,3-triazoles, M. tuberculosis H37Rv (ATCC 27294), MABA, read-out: MIC
[6] = Mycobacterium tuberculosis, 1,2,3-triazole derivatives types I-III and rifampicin comparison pattern, M. tuberculosis H37Rv, MABA, read-out: MIC
[7] = Mycobacterium tuberculosis, Table 4, type I (Formula XII) imidazole derivatives, read-out: MIC
[8] = Mycobacterium tuberculosis, Table 5, type II (Formula XIII) imidazole derivatives, read-out: MIC

O=Cc1cn(-c2ccc(Cl)cc2)nn1 [114a, 4-carboxaldehyde-1-(4-chlorophenyl)-1H-1,2,3-triazole]
MIC [1, 3]: 5 µg/mL and 5.0 µg/mL | MIC (μg/mL) [1, 4]: 5,0 μg/mL

O=Cc1cn(-c2ccc(Br)cc2)nn1 [114b, 4-carboxaldehyde-1-(4-bromophenyl)-1H-1,2,3-triazole]
MIC [1, 3]: 5.0 µg/mL (≈ 19.8 µM) | MIC (μg/mL) [1, 4]: 5,0 μg/mL

Cc1ccc(-n2cc(C=O)nn2)cc1 [114c, 4-carboxaldehyde-1-(4-methylphenyl)-1H-1,2,3-triazole]
MIC [1, 3]: 2.5 µg/mL (≈ 13.4 µM) | MIC (μg/mL) [1, 4]: 2,5 μg/mL

COc1ccc(-n2cc(C=O)nn2)cc1 [114d, 4-carboxaldehyde-1-(4-methoxyphenyl)-1H-1,2,3-triazole]
MIC (μg/mL) [1, 4]: 10,0 μg/mL

COc1ccc(OC)c(-n2cc(C=O)nn2)c1 [114e, 4-carboxaldehyde-1-(2,5-dimethoxyphenyl)-1H-1,2,3-triazole]
MIC (μg/mL) [1, 4]: 80,0 μg/mL

O=Cc1cn(-c2cccc(Cl)c2)nn1 [114f, 4-carboxaldehyde-1-(3-chlorophenyl)-1H-1,2,3-triazole]
MIC [1, 5]: 10 µg/mL (≈ 48.2 µM) | Inhibition (%) [1]: 100% | inhibition at 320 µg/mL ([2]; concentration 320 μg/mL): 72%

O=Cc1cn(-c2cc(Cl)cc(Cl)c2)nn1 [114g, 4-carboxaldehyde-1-(3,5-dichlorophenyl)-1H-1,2,3-triazole]
MIC [1, 3]: 2.5 µg/mL (≈ 10.3 µM) | MIC (μg/mL) [1, 4]: 2,5 μg/mL

N#Cc1cccc(-n2cc(C=O)nn2)c1 [114h, 4-carboxaldehyde-1-(3-cyanophenyl)-1H-1,2,3-triazole]
MIC (μg/mL) [1, 4]: 20,0 μg/mL

N#Cc1ccc(-n2cc(C=O)nn2)cc1 [114i, 4-carboxaldehyde-1-(4-cyanophenyl)-1H-1,2,3-triazole]
MIC [1, 3]: 5.0 µg/mL (≈ 25.2 µM) | MIC (μg/mL) [1, 4]: 5,0 μg/mL

O=Cc1cn(-c2ccc([N+](=O)[O-])cc2)nn1 [114j, 4-carboxaldehyde-1-(4-nitrophenyl)-1H-1,2,3-triazole]
MIC [1, 6]: 20 µg/mL (≈ 91.7 µM) | inhibition at 160 µg/mL [2]: 11%

COc1ccccc1-n1cc(C=O)nn1 [114l, 4-carboxaldehyde-1-(2-methoxyphenyl)-1H-1,2,3-triazole]
MIC (μg/mL) [1, 4]: 40,0 μg/mL

COc1ccc(-n2cc(C=O)nn2)cc1OC [114m, 4-carboxaldehyde 1-(3,4-dimethoxyphenyl)-1H-1,2,3-triazole]
MIC (μg/mL) [1, 4]: 80,0 μg/mL

FC(F)c1cn(-c2ccc(Cl)cc2)nn1 [121a, 1-(4-chlorophenyl)-4-difluoromethyl-1H-1,2,3-triazole]
MIC ([1]; Mycobacterium tuberculosis): 40 µg/mL (≈ 174 µM) | MIC (μg/mL) [1, 4]: 40,0 μg/mL

FC(F)c1cn(-c2ccc(Br)cc2)nn1 [121b, 1-(4-bromophenyl)-4-difluoromethyl-1H-1,2,3-triazole]
MIC [1, 5]: 20 µg/mL (≈ 73 µM) | Inhibition (%) [1]: 75%

Cc1ccc(-n2cc(C(F)F)nn2)cc1 [121c, 1-(4-methylphenyl)-4-difluoromethyl-1H-1,2,3-triazole]
MIC [1, 5]: 40 µg/mL (≈ 191 µM) | Inhibition (%) [1]: 87%

COc1ccc(-n2cc(C(F)F)nn2)cc1 [121d, 1-(4-methoxyphenyl)-4-difluoromethyl-1H-1,2,3-triazole]
MIC [1, 5]: 10 µg/mL (≈ 44.4 µM) | Inhibition (%) [1]: 93%

COc1ccc(OC)c(-n2cc(C(F)F)nn2)c1 [121e, 1-(2,5-dimethoxyphenyl)-4-difluoromethyl-1H-1,2,3-triazole]
MIC [1, 5]: 80 µg/mL (≈ 313 µM) | Inhibition (%) [1]: 74%

FC(F)c1cn(-c2cccc(Cl)c2)nn1 [121f, 1-(3-chlorophenyl)-4-difluoromethyl-1H-1,2,3-triazole]
MIC [1, 5]: 80 µg/mL (≈ 348 µM) | Inhibition (%) [1]: 54% | inhibition at 10 µg/mL [2]: 93%

FC(F)c1cn(-c2cc(Cl)cc(Cl)c2)nn1 [121g, 1-(3,5-dichlorophenyl)-4-difluoromethyl-1H-1,2,3-triazole]
MIC [1, 5]: 80 µg/mL (≈ 303 µM) | Inhibition (%) [1]: 55%

N#Cc1cccc(-n2cc(C(F)F)nn2)c1 [121h, 1-(3-cyanophenyl)-4-difluoromethyl-1H-1,2,3-triazole]
MIC [1, 5]: 80 µg/mL (≈ 363 µM)

N#Cc1ccc(-n2cc(C(F)F)nn2)cc1 [121i, 1-(4-cyanophenyl)-4-difluoromethyl-1H-1,2,3-triazole]
MIC [1, 5]: 20 µg/mL (≈ 90.8 µM)

O=[N+]([O-])c1ccc(-n2cc(C(F)F)nn2)cc1 [121j, 1-(4-nitrophenyl)-4-difluoromethyl-1H-1,2,3-triazole]
MIC [1, 6]: 40 µg/mL (≈ 167 µM)

COc1ccc(-n2cc(C(F)F)nn2)cc1OC [121m, 1-(3,4-dimethoxyphenyl)-4-difluoromethyl-1H-1,2,3-triazole]
MIC [1, 5]: 80 µg/mL (≈ 313 µM) | Inhibition (%) [1]: 66%

CCOC(=O)c1ncn(-c2ccc(C)cc2)c1N(C(=O)c1ccc(F)cc1)C(=O)c1ccc(F)cc1 [140a]
inhibition at 10 µg/mL [2]: 79%

CCOC(=O)c1ncn(-c2ccc(C#N)cc2)c1N(C(=O)c1ccc(F)cc1)C(=O)c1ccc(F)cc1 [140b]
MIC [1, 7]: 1.2 µg/mL (≈ 2.4 µM)

CCOC(=O)c1ncn(-c2ccc(C)cc2)c1N(C(=O)c1ccccc1F)C(=O)c1ccccc1F [146a]
MIC [1, 7]: 3 µg/mL (≈ 6.13 µM) | inhibition at 80 µg/mL ([2]; concentration 80 μg/mL): 75%

CCOC(=O)c1ncn(-c2ccc(Cl)cc2)c1N(C(=O)c1ccccc1F)C(=O)c1ccccc1F [146c]
MIC [1, 7]: 3 µg/mL (≈ 5.88 µM)

CCOC(=O)c1ncn(-c2c(F)cccc2F)c1N(C(=O)c1ccccc1F)C(=O)c1ccccc1F [146e]
MIC [1, 7]: 3 µg/mL (≈ 5.87 µM)

CCOC(=O)c1ncn(-c2ccc(C)cc2)c1NC(=O)c1ccc(F)cc1 [148a, Ester ethyl 5-[(4-fluorobenzoic)amino]-1-(4-methylphenyl)-1H-imidazole-4-carboxylate]
MIC [1, 8]: 3 µg/mL (≈ 8.17 µM) | inhibition at 10 µg/mL [2]: 90%

CCOC(=O)c1ncn(-c2ccc(C)cc2)c1NC(=O)c1ccccc1F [149a, Ester ethyl 5-[(2-fluorobenzoic)amino]-1-(4-methylphenyl)-1H-imidazole-4-carboxylate]
inhibition at 160 µg/mL [2]: 93%

CCOC(=O)c1ncn(-c2ccc(C#N)cc2)c1NC(=O)c1ccccc1F [149b, Ester ethyl 1-(4-cyanophenyl)-5-[(2-fluorobenzoic)amino]-1H-imidazole-4-carboxylate]
MIC [1, 8]: 3 µg/mL (≈ 7.93 µM)

CCOC(=O)c1ncn(-c2ccc(Cl)cc2)c1NC(=O)c1ccccc1F [149c, Ester ethyl 1-(4-chlorophenyl)-5-[(2-fluorobenzoic)amino]-1H-imidazole-4-carboxylate]
MIC [1, 8]: 3 µg/mL (≈ 7.74 µM)

N=C(N)c1ccc(OCCCCCOc2ccc(C(=N)N)cc2)cc1 [Pentamidine, pentamidine, reference compound]
inhibition at 160 µg/mL [2]: 53%

CO[C@H]1/C=C/O[C@@]2(C)Oc3c(C)c(O)c4c(O)c(c(/C=N/N5CCN(C)CC5)c(O)c4c3C2=O)NC(=O)/C(C)=C\C=C\[C@H](C)[C@H](O)[C@@H](C)[C@@H](O)[C@@H](C)[C@H](OC(C)=O)[C@@H]1C [Rifampicin, rifampicin, reference compound]
MIC [1, 3]: 1.0 µg/mL (≈ 1.22 µM) | MIC ([1]; Mycobacterium tuberculosis, imidazole derivatives and rifampicin comparison pattern, M. tuberculosis H37Rv, MABA, read-out: MIC): 1 µg/mL (≈ 1.22 µM) | MIC (μg/mL) [1, 4]: 1,0 μg/mL

Clc1ccc(/N=C/c2cn(-c3ccc(Cl)cc3)nn2)cc1 [compound 119, (E)-4-chloride-N-((1-(4-chlorophenyl)-1H-1,2,3-triazole-4-il)methylene) benzenamine]
MIC [1, 3]: 40 µg/mL (≈ 126 µM)

Brc1ccc(/N=C/c2cn(-c3ccc(Br)cc3)nn2)cc1 [compound 120, (E)-4-bromo-N-((1-(4-bromophenyl)-1H-1,2,3-triazole-4-il)methylene) benzenamine]
MIC [1, 3]: 20 µg/mL (≈ 49.3 µM)
